Test results as given in paper PMC6268888, “Novel Coumarin Derivatives Containing 1,2,4-Triazole, 4,5-Dicyanoimidazole and Purine Moieties: Synthesis and Evaluation of Their Cytostatic Activity” (Molecules, 2012).
Values joined by “and” are separate entries in the source; they are usually repeats but may differ in a detail not shown here. Equal values may be shown once. Read-outs that look alike come from different tables or passages of the source.

What was measured:
[1] = system: HepG2 (hepatocellular carcinoma); assay: MTT proliferation assay, HepG2 cells; assay type: cell-based, human; settings: 72 h, read-out: IC50 (50% growth inhibition) HepG2
Protocol: (§1) This study was set out to examine the anti-proliferative effects of coumarin derivates (3–18) on human tumor cell lines and normal (diploid) human fibroblasts.
(§2) Cell culturing: Human cell lines HeLa (cervical carcinoma), SW620 (colorectal adenocarcinoma, metastatic), MCF-7 (breast epithelial adenocarcinoma, metastatic), HepG2 (hepatocellular carcinoma) and BJ (normal diploid human fibroblasts) were cultured as monolayers and maintained in Dulbecco’s modified Eagle medium (DMEM) supplemented with 10% fetal bovine serum (FBS), 2 mM L-glutamine, 100 U/mL penicillin and 100 μg/mL streptomycin in a humidified atmosphere with 5% CO2 at 37 °C.
(§3) Proliferation assay: The cell lines were inoculated into a series of standard 96-well microtiter plates on day 0 at seeding density of 3,000–6,000 cells per well depending upon their specific doubling times. Freshly prepared dilutions of test compounds in culture medium in the concentration range 1 × 10^−8–1 × 10^−4 M were added to the microtiter plates, and the cells were grown for further 72 h. The solvent (DMSO) was also tested for its potential inhibitory activity by adjusting its concentration to the values used for the preparation of the working concentrations (DMSO concentration never exceeded 0.1%). After 72 h of incubation, the cell growth rate was evaluated by performing the MTT assay: experimentally determined absorbance values were transformed into the cell percentage growth (PG) using the formulas proposed by NIH and described previously. This method directly relies on control cells behaving normally at the day of assay commencement because it compares the growth of treated cells with that of untreated cells in control wells on the same plate. The results are therefore a percentile difference from the calculated expected value. […] If, however, all of the tested concentrations produce PGs exceeding the respective reference level of effect (e.g., PG value of 50) for a given cell line, the highest tested concentration is assigned as the default value (in the screening data report that default value is preceded by a “>” sign). Each test point was performed in quadruplicate in three individual experiments. The results were statistically analyzed (ANOVA, Tukey post-hoc test at p < 0.05).

[2] = system: MCF-7 (breast epithelial adenocarcinoma, metastatic); assay: MTT proliferation assay, MCF-7 cells; assay type: cell-based, human; settings: read-out: IC50 (50% growth inhibition) MCF-7
Protocol: as §1, §2, §3

[3] = system: BJ (normal diploid human fibroblasts); assay: MTT proliferation assay, BJ normal fibroblasts; assay type: cell-based; settings: 72 h, read-out: IC50 (50% growth inhibition) BJ
Protocol: as §1, §2, §3

[4] = system: HeLa (cervical carcinoma); assay: MTT proliferation assay, HeLa cells; assay type: cell-based, human; settings: 72 h, read-out: IC50 (50% growth inhibition) HeLa
Protocol: as §1, §2, §3

[5] = system: SW620 (colorectal adenocarcinoma, metastatic); assay: MTT proliferation assay, SW620 cells; assay type: cell-based, human; settings: read-out: IC50 (50% growth inhibition) SW620
Protocol: as §1, §2, §3

Row | Compound | IC50 [1] | IC50 ([2]; 72 h) [µM] | IC50 [3] [µM] | IC50 [4] [µM] | IC50 ([5]; 72 h) | IC50 ([1]; Homo sapiens) [µM] | IC50 ([2]; Homo sapiens, MCF7, 72 h) [µM] | IC50 ([3]; Homo sapiens, Fibroblast) [µM] | IC50 ([4]; Homo sapiens, HeLa) [µM] | melting point [°C] | IC50 ([5]; Homo sapiens, SW-620, 72 h) [µM]
1 | 1-(4-Hydroxy-2-(2-hydroxy-4-methoxyphenyl)butyl)guanine [Compound 18] | > 100 µM | > 100 | > 100 | > 100 | > 100 µM | – | – | – | – | – | –
2 | 1-((7-Hydroxy-2-oxo-2H-chromen-4-yl)methyl)-2-amino-6-chloropurine [Compound 10] | 25 µM and 25.6 µM | > 100 | > 100 | 34 ± 8.4 | 35 µM and 35.4 µM | – | – | – | – | – | –
3 | 1-((7-Hydroxy-2-oxo-2H-chromen-4-yl)methyl)-2-aminopurine [Compound 11] | > 100 µM | > 100 | > 100 | > 100 | > 100 µM | – | – | – | – | – | –
4 | 1-((7-Hydroxy-2-oxo-2H-chromen-4-yl)methyl)-6-chloropurine [Compound 8] | > 100 µM | > 100 | > 100 | > 100 | > 100 µM | – | – | – | – | – | –
5 | 1-((7-Hydroxy-2-oxo-2H-chromen-4-yl)methyl)purine [Compound 9] | > 100 µM | > 100 | > 100 | > 100 | > 100 µM | – | – | – | – | – | –
6 | 1-((7-Methoxy-2-oxo-2H-chromen-4-yl)methyl)-2-amino-6-chloropurine [Compound 12] | > 100 µM | > 100 | > 100 | > 100 | > 100 µM | – | – | – | – | – | –
7 | 1-((7-Methoxy-2-oxo-2H-chromen-4-yl)methyl)guanine [Compound 13] | > 100 µM | > 100 | > 100 | > 100 | > 100 µM | – | – | – | – | – | –
8 | COC(=O)c1ncn(Cc2cc(=O)oc3cc(O)ccc23)n1 [Compound 3, Methyl 1-((7-hydroxy-2-oxo-2H-chromen-4-yl)methyl)-1,2,4-triazole-3-carboxylate] | – | – | – | – | – | > 100 | > 100 | > 100 | > 100 | 216 to 218 | > 100
9 | NC(=O)c1ncn(Cc2cc(=O)oc3cc(O)ccc23)n1 [Compound 4, 1-((7-Hydroxy-2-oxo-2H-chromen-4-yl)methyl)-1,2,4-triazole-3-carboxamide] | – | – | – | – | – | > 100 | > 100 | > 100 | > 100 | – | > 100
10 | COC(=O)c1ncn(Cc2cc(=O)oc3cc(OC)ccc23)n1 [Compound 5, Methyl 1-((7-Methoxy-2-oxo-2H-chromen-4-yl)methyl)-1,2,4-triazole-3-carboxylate] | – | – | – | – | – | > 100 | > 100 | > 100 | > 100 | 234 to 237 | > 100
11 | COc1ccc2c(Cn3cnc(C(N)=O)n3)cc(=O)oc2c1 [Compound 6, 1-((7-Methoxy-2-oxo-2H-chromen-4-yl)methyl)-1,2,4-triazole-3-carboxamide] | – | – | – | 35.5 ± 13.5 | – | > 100 | > 100 | > 100 | 35 | – | > 100
12 | N#Cc1ncn(Cc2cc(=O)oc3cc(O)ccc23)c1C#N [Compound 7, 1-((7-Hydroxy-2-oxo-2H-chromen-4-yl)methyl)-4,5-dicyanoimidazole] | – | – | – | – | – | > 100 | > 100 | > 100 | > 100 | 238 to 240 | > 100
13 | CCOC(=O)c1ncn(CC(CCO)c2ccc(OC)cc2O)n1 (stereo not drawn) [Compound 14, Ethyl 1-(4-hydroxy-2-(2-hydroxy-4-methoxyphenyl)butyl)-1,2,4-triazole-3-carboxylate] | – | – | – | – | – | > 100 | > 100 | > 100 | > 100 | – | > 100
14 | COc1ccc(C(CCO)Cn2cnc(C(N)=O)n2)c(O)c1 (stereo not drawn) [Compound 15, 1-(4-Hydroxy-2-(2-hydroxy-4-methoxyphenyl)butyl)-1,2,4-triazole-3-carboxamide] | – | – | – | – | – | > 100 | > 100 | > 100 | > 100 | – | > 100
15 | COc1ccc(C(CCO)Cn2cncn2)c(O)c1 (stereo not drawn) [Compound 16, 1-(4-hydroxy-2-(2-hydroxy-4-methoxyphenyl)butyl)-1,2,4-triazole] | – | – | – | – | – | > 100 | > 100 | > 100 | > 100 | – | > 100
16 | COc1ccc(C(CCO)Cn2cnc(CO)n2)c(O)c1 (stereo not drawn) [Compound 17, ethyl 1-(4-hydroxy-2-(2-hydroxy-4-methoxyphenyl)butyl)-1,2,4-triazole-3-hydroxymethyl] | – | – | – | – | – | > 100 | > 100 | > 100 | > 100 | – | > 100
